In paper PMC6986443, “T‐495, a novel low cooperative M1 receptor positive allosteric modulator, improves memory deficits associated with cholinergic dysfunction and is characterized by low gastrointestinal side effect risk” (Pharmacology Research & Perspectives, 2020):

Tests used:
human M2R–M5R = assay: Ca2+ mobilization assay, PAM activity (with EC20 ACh), CHO‐K1 cells; assay type: cell-based; details: inflection point, EC20 concentration of ACh, read-out: PAM activity IP
Experimental: Chinese hamster ovary (CHO)‐K1 cells expressing M1R–M5R were plated on a 96‐well black, clear bottom plate at 30 000 cells/well and incubated at 37°C in an atmosphere of 5% CO2 for 1 day. On the day of the assay, cells were incubated with calcium dye buffer (Hanks’ Balanced Salt Solution (HBSS) containing 20 mmol/L HEPES, 0.1% fatty acid‐free bovine serum albumin (BSA), 0.08% pluronic F127 (Dojindo Laboratories), 2.5 μg/mL Fluo‐4 (Dojindo Laboratories), and 1.25 mmol/L probenecid (Dojindo Laboratories)) for 30 minutes at 37°C in an atmosphere of 5% CO2 and then incubated for 30 minutes at room temperature. To measure Ca^2+ mobilization using CellLux (PerkinElmer), cells were stimulated with T‐495 or MK‐7622 (0.01‐1000 nmol/L for PAM activity; 0.3‐10 000 nmol/L for agonist activity) in assay buffer (HBSS containing 20 mmol/L HEPES and 0.1% fatty acid‐free BSA) with or without an EC20 concentration of ACh. The inflection point (IP) and EC50 values were calculated using the following equation by GraphPad Prism 5 software (GraphPad Software Inc): Y=Bottom+(Top-Bottom)/1+10^(Log IPorEC50-X×HillSlope))
where X and Y are the log concentration of a compound and the percentage of Ca^2+ response, respectively, and Top and Bottom are the upper and lower plateaus, respectively.

Protein kinase A (PKA) = assay: Selectivity panel; assay type: biochemical
Text: (§1) The selectivity of T‐495 at 10 μmol/L against a panel of 106 targets, including receptors, enzymes, ion channels, and transporters, was characterized (Eurofins Panlabs Taiwan Ltd., Taipei, Taiwan).

Lipoxygenase (5-LO) = biological target: T1, Lipoxygenase (5-LO) (Homo sapiens, UniProt P09917); assay: Selectivity panel; assay type: biochemical
T1 construct: purchased Eurofins Panlabs Taiwan Ltd
T1 sequence (P09917 whole entry): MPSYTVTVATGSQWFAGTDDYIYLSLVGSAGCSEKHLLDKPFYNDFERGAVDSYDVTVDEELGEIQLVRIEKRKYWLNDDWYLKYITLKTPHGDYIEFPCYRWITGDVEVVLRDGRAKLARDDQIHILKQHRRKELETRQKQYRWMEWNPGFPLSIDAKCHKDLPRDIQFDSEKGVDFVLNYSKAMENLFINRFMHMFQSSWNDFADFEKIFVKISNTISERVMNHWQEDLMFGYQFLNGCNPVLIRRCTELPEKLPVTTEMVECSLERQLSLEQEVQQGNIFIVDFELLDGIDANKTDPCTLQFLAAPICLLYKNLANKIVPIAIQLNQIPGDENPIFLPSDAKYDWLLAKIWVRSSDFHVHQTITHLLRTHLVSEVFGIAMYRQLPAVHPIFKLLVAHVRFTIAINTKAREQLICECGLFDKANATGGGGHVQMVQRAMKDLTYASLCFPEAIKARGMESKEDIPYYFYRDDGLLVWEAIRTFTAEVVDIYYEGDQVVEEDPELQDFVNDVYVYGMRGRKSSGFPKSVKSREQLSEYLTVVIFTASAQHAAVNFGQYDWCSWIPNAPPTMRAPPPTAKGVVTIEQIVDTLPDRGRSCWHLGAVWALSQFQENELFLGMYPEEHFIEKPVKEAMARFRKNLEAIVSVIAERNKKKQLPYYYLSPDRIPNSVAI
Text: as §1

[1] = biological target: T2, Matrix metalloproteinase-7 (MMP-7) (Homo sapiens, UniProt P09237); assay: Selectivity panel; assay type: biochemical
T2 construct: purchased Eurofins Panlabs Taiwan Ltd
T2 sequence (P09237 95-267): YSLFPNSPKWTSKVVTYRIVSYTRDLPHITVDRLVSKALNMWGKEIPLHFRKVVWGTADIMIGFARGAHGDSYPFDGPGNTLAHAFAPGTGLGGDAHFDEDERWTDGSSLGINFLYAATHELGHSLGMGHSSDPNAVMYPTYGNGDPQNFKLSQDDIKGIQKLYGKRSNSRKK
Text: as §1

[2] = Concentrations in rat plasma and brain (IP1 study); assay type: in vivo; details: Long-Evans, po, mean ± SD; for Kp at 2 h: brain/plasma, read-out: Kp (brain‐to‐plasma concentration ratio)
Experimental: (§2) Eight‐week‐old Long‐Evans rats, 8‐ to 9‐week‐old C57BL/6J mice, and 22‐ or 29‐week‐old M1R KO mice and their WT littermates were used in this study. On the day of the experiment, animals were placed in individual cages and acclimated for more than 1 hour. A test compound or vehicle was administered 2 hours before the animals were sacrificed. […] LiCl (10 mmol/kg, s.c.) was injected 1 hour before sacrifice. In the repeated administration study, a test compound was administered to mice once daily for 13 days; on day 14, animals were treated with a test compound and LiCl (10 mmol/kg, s.c.) and then sacrificed. Animals were killed by decapitation, and blood was collected into tubes containing ethylenediaminetetraacetic acid for pharmacokinetic analysis; brains were quickly dissected, frozen on dry ice, and stored at −80°C until analysis. Brain tissues were homogenized in 19 (for rat tissues) or 39 (for mouse tissue) volumes of homogenization buffer (10 mmol/L HEPES pH 7.4, 50 mmol/L LiCl, 150 mmol/L NaCl, and 1% Triton X‐100), and the homogenate was incubated on a rotator for 1 hour, followed by centrifugation. The supernatant was diluted with 39 (for rat tissues) or 19 (for mouse tissues) volumes of dilution buffer (10 mmol/L HEPES pH 7.4, 50 mmol/L LiCl, and 150 mmol/L NaCl). IP1 and protein concentrations in the diluted supernatant were measured using IP‐One HTRF assay kit (Cisbio Bioassays) and BCA Protein Assay Kit (Thermo Fisher Scientific Inc), respectively, according to the manufacturers’ instructions. IP1 production was expressed as the ratio of IP1 to protein concentrations.

[3] = system: IP1 production in the rat hippocampus; assay: In vivo IP1 assay, rat hippocampus; details: LiCl 10 mmol/kg s.c., vs vehicle
Experimental: as §2

[4] = system: IP1 production in the mouse hippocampus; assay: In vivo IP1 assay after repeated administration for 13 days; details: for Basal IP1 level in the mouse hippocampus: after repeated treatment 10 mg/kg p.o. for 13 days, mean ± SEM, n = 10; for magnitude of IP1 increase in mouse hippocampus after 13 days of pretreatment: pretreatment 10 mg/kg p.o. once daily, vs single administration
Experimental: as §2

[5] = system: CaMKIIα‐tTA/A53T α‐syn dTg mice; assay: Y‐maze task; assay type: in vivo, mouse; details: 3 mg/kg p.o.
Experimental: The Y‐maze was fabricated from gray plastic and consisted of three arms (40 cm long, 12 cm high, 3 cm wide at the bottom, and 10 cm wide at the top) with an angle of 120°. Visual cues were placed outside each arm, and the apparatus was illuminated at 10 lux. […] An arm entry was defined as all four paws of the mouse being in the arm, and the sequence of arm entries was monitored with a video camera and counted manually. An alternation was defined as successive entries into the three arms on overlapping triplet sets.36 The percentage of alternation was calculated as the ratio of actual to possible alternations (total number of arm entries minus 2) multiplied by 100.

[6] = Concentrations in plasma and brain of wild-type and M1R KO mice; assay type: in vivo; details: mouse, po; for concentration at 2 h: mean ± SD; for Kp at 2 h: brain/plasma
Experimental: as §2

[7] = system: rats pretreated with scopolamine; assay: Novel object recognition (NOR) test, scopolamine‐induced memory impairment; assay type: in vivo, rat; details: for scopolamine‐induced NDI reduction, retention trial: scopolamine 0.1 mg/kg s.c.
Experimental: On Day 1, 7‐week‐old Long‐Evans rats were individually placed into the test box fabricated from polyvinyl chloride (40‐cm square with 50‐cm high walls) without any objects for 10 minutes. […] In the acquisition trial, each rat was placed in the test box containing two identical objects and allowed to explore them for 3 minutes. After an intertrial interval of 4 hours, each rat was again placed in the same test box containing one familiar and one novel objects and allowed to explore both for 3 minutes (retention trial). The behavior of each animal during the acquisition and retention trials was recorded on video, and the time spent exploring each object (licking, sniffing, or touching the object with the forepaws) was scored manually. Results were presented as novelty discrimination index (NDI) calculated as follows: the exploration time for the novel object/the exploration time for both objects × 100.

selectivity panel = details: cited from earlier work
[8] = brain (hippocampus), rat hippocampus, 3 mg/kg p.o., read-out: Brain concentration
[9] = brain (hippocampus), rat hippocampus, 10 mg/kg p.o., read-out: Brain concentration
[10] = plasma, rat, 3 mg/kg p.o., n = 6, read-out: Plasma concentration
[11] = plasma, rat, 10 mg/kg p.o., n = 6, read-out: Plasma concentration

SMILES: Cc1c(Cc2ccc(Cl)nc2)cc2c(c1Cl)OCN([C@H]1CCC[C@@H]1O)C2=O [T‐495, 8‐chloro‐6‐((6‐chloropyridin‐3‐yl)methyl)‐3‐((1S,2S)‐2‐hydroxycyclopentyl)‐7‐methyl‐2,3‐dihydro‐4H‐1,3‐benzoxazin‐4‐one]
- EC50 (human M2R–M5R): > 1000 nM
- % inhibition at 10 μM (Protein kinase A (PKA)): -4%
- inhibition at 10 µM (Lipoxygenase (5-LO)): 15%
- inhibition at 10 µM [1]: 3%
- concentration at 2 h [2, 8]: 66.2 ± 18.5 ng/g
- concentration at 2 h [2, 9]: 304 ± 82.8 ng/g
- concentration at 2 h ([2]; brain (hippocampus), rat hippocampus, 30 mg/kg p.o., read-out: Brain concentration): 1000 ± 330 ng/g
- Kp at 2 h ([2]; rat, 3 mg/kg p.o.): 1.4 ± 0.1
- Kp at 2 h ([2]; rat, 10 mg/kg p.o.): 1 ± 0.1
- Kp at 2 h ([2]; rat, 30 mg/kg p.o.): 1 ± 0.1
- concentration at 2 h [2, 10]: 49.6 ± 14.5 ng/mL
- concentration at 2 h [2, 11]: 298 ± 75.2 ng/mL
- concentration at 2 h ([2]; plasma, rat, 30 mg/kg p.o., n = 6, read-out: Plasma concentration): 1050 ± 358 ng/mL
- IP1 production in the rat hippocampus ([3]; 10 mg/kg p.o.): significantly increased
- IP1 production in the rat hippocampus ([3]; 30 mg/kg p.o.): significantly increased
- Basal IP1 level in the mouse hippocampus [4]: 1.09± 0.03 nmol/mg protein
- magnitude of IP1 increase in mouse hippocampus after 13 days of pretreatment [4]: comparable to those after single administration
- reduced percentage of alternations [5]: significantly reversed
- concentration at 2 h ([6]; brain (hippocampus), 10 mg/kg, M1R KO mice hippocampus, 10 mg/kg p.o., read-out: Brain concentration): 856 ± 78.4 ng/g
- concentration at 2 h ([6]; brain (hippocampus), 10 mg/kg, wild-type mice hippocampus, 10 mg/kg p.o., read-out: Brain concentration): 1030 ± 145 ng/g
- Kp at 2 h ([6]; 10 mg/kg, M1R KO mice, 10 mg/kg p.o.): 0.55
- Kp at 2 h ([6]; 10 mg/kg, wild-type mice, 10 mg/kg p.o.): 0.62 ± 0.1
- concentration at 2 h ([6]; plasma, 10 mg/kg, M1R KO mice, 10 mg/kg p.o., n = 10, read-out: Plasma concentration): 1590 ± 266 ng/mL
- concentration at 2 h ([6]; plasma, 10 mg/kg, wild-type mice, 10 mg/kg p.o., n = 10, read-out: Plasma concentration): 1690 ± 280 ng/mL
- scopolamine‐induced NDI reduction, retention trial ([7]; 0.3 mg/kg p.o.): subeffective
- scopolamine‐induced NDI reduction, retention trial ([7]; 1 mg/kg p.o.): significantly reversed
- scopolamine‐induced NDI reduction, retention trial ([7]; 3 mg/kg p.o.): significantly reversed
- scopolamine‐induced NDI reduction, combination with donepezil ([7]; T‐495 0.3 mg/kg + donepezil 0.1 mg/kg p.o.): significantly improved

SMILES: Cc1ccc(Cc2cc3c(=O)n([C@H]4CCCC[C@@H]4O)cnc3c3ccccc23)cn1 [MK‐7622, 3‐((1S,2S)‐2‐hydroxycyclohexyl)‐6‐((6‐methylpyridin‐3‐yl)methyl)benzo[h]quinazolin‐4(3H)‐one, reference compound]
- EC50 (human M2R–M5R): > 1000 nM
- concentration at 2 h ([2]; brain (hippocampus), rat hippocampus, 1 mg/kg p.o., read-out: Brain concentration): 14.5 ± 6.3 ng/g
- concentration at 2 h [2, 8]: 39.3 ± 5.6 ng/g
- concentration at 2 h [2, 9]: 220 ± 72.2 ng/g
- Kp at 2 h ([2]; rat, 1 mg/kg p.o.): 0.14 ± 0.04
- Kp at 2 h ([2]; rat, 3 mg/kg p.o.): 0.19 ± 0.04
- Kp at 2 h ([2]; rat, 10 mg/kg p.o.): 0.23 ± 0.02
- concentration at 2 h ([2]; plasma, rat, 1 mg/kg p.o., n = 6, read-out: Plasma concentration): 99.2 ng/mL
- concentration at 2 h [2, 10]: 218 ± 42.9 ng/mL
- concentration at 2 h [2, 11]: 944 ± 246 ng/mL
- IP1 production in the rat hippocampus ([3]; 10 mg/kg p.o.): significantly increased
- Basal IP1 level in the mouse hippocampus [4]: 0.99± 0.05 nmol/mg protein
- magnitude of IP1 increase in mouse hippocampus after 13 days of pretreatment [4]: comparable to those after single administration
- concentration at 2 h ([6]; brain (hippocampus), 20 mg/kg, M1R KO mice hippocampus, 20 mg/kg p.o., read-out: Brain concentration): 456 ± 85.8 ng/g
- concentration at 2 h ([6]; brain (hippocampus), 20 mg/kg, wild-type mice hippocampus, 20 mg/kg p.o., read-out: Brain concentration): 582 ± 133 ng/g
- Kp at 2 h ([6]; 20 mg/kg, M1R KO mice, 20 mg/kg p.o.): 0.21
- Kp at 2 h ([6]; 20 mg/kg, wild-type mice, 20 mg/kg p.o.): 0.26
- concentration at 2 h ([6]; plasma, 20 mg/kg, M1R KO mice, 20 mg/kg p.o., n = 10, read-out: Plasma concentration): 2190 ± 312 ng/mL
- concentration at 2 h ([6]; plasma, 20 mg/kg, wild-type mice, 20 mg/kg p.o., n = 10, read-out: Plasma concentration): 2240 ± 376 ng/mL
- selectivity in a selectivity panel (selectivity panel): exhibited inhibitory activities only against 5‐lipoxygenase and phosphodiesterase 4
- scopolamine‐induced NDI reduction, retention trial ([7]; 1 mg/kg p.o.): subeffective
- scopolamine‐induced NDI reduction, retention trial ([7]; 3 mg/kg p.o.): significantly reversed
- scopolamine‐induced NDI reduction, retention trial ([7]; 10 mg/kg p.o.): significantly reversed
- scopolamine‐induced NDI reduction, combination with donepezil ([7]; MK‐7622 1 mg/kg + donepezil 0.1 mg/kg p.o.): could not reverse
